*1 amine or outer side, *2 acyl side, *3 side chain or, on linkers, in order; H or OH if unused. Where a SMILES comes first, the peptide text is derived from it. Bridges are numbered along the chain shown (N, C = ends). X1 = O=C([C@@H]1C[C@H](C=CCO[*:3])C[C@@H]1C=CCO[*:1])[*:2]
How the values were obtained:
[1] = free peptide; liposomes therefore used as delivery vehicles
U87 cells = assay: Cell viability test (resazurin), U87; assay type: cell-based, human; details: peptide-loaded DOTAP/DOPE liposomes vs empty liposomes, 48 hours, resazurin fluorescence
Method: (§1) Liposome loading capacity quantification
(§2) 200 μL of the liposome solution (4 mg/mL) was dried under vacuum and extracted with 50 μL of DMSO. The obtained solution was analyzed on a reverse-phase HPLC and the corresponding peptide peak was identified by mass spectrometry. The peptide concentration was then determined by comparing the peak area to that of a standard solution. The loading capacities were calculated accordingly.
Cells were seeded in a 96-well plate at 4 k/well and incubated overnight. Afterward, the cells were washed with complete media and treated with varying concentrations of peptide-loaded liposome or empty liposome. The final media volume was 200 μL in each well. The cells were treated for 48 hours and then washed with fresh media to remove residue peptides or liposomes. For a single well, Resazurin (10 μg/mL in PBS) mixed with 200 μL of fresh cell media was added, and the plate was incubated at 37 °C for 3 hours. The 96-well plate was shaken for 15 min on an orbital mixer in dark, and the fluorescence (540 nm excitation, 590 nm emission) intensities were read by a […]
(§3) U87 cells were detached by trypsin and resuspended in 5 mL of PBS(1x). […] The protein concentrations were determined by BCA assay.
(§4) To prepare the sample for the cellular thermal shift assay, the quantified cell lysate was adjusted to a final concentration of 1.481 mg/mL with lysis buffer. […]

MYC = molecular target: T1, MYC (Homo sapiens, UniProt P01106); assay: Cellular thermal shift assay (CETSA) with U87 cell lysate; assay type: binding; details: U87 cell lysate 1.481 mg/mL, 195 μL lysate + 19.5 μL peptide (1 mM in PBS); 50 to 65 °C for 3 min; Western blot; versus control
T1 construct: made in house; host or cells: E. coli BL21(DE3)
Method: To validate that NT-B2R could bind to MYC in complex biological environments, we performed cellular thermal shift assays using U87 cell lysates[34] (Figure 4A). U87 is a human glioblastoma cell line with known dependence on MYC activities.[35]−[37]
as §1, §2
Cells were seeded in a 96-well plate at 4 k/well and incubated overnight. Afterward, the cells were washed with complete media and treated with varying concentrations of peptide-loaded liposome or empty liposome. The final media volume was 200 μL in each well. […] The 96-well plate was shaken for 15 min on an orbital mixer in dark, and the fluorescence (540 nm excitation, 590 nm emission) intensities were read by a […]
as §3, §4

[2] = system: MYC transcription activity (HALLAMRK MYC TARGETS V1 gene set); assay: RNA-seq, differential expression (DESeq) and GSEA in U87 cells; assay type: cell-based, human; details: treated vs vehicle, p-value < 0.001, FDR 0.005
Excerpt: To test whether NT-B2R directly affected MYC activity, we performed RNA-seq on the U87 cells and evaluated the differentially expressed genes using DESeq. […] A caveat here is that a global shift of transcription activities will not be observable by this analysis, due to the embedded normalization procedure.[38] Nevertheless, gene set enrichment analysis (GSEA) results highlighted that MYC target gene sets were enriched with high statistical significance and low false discovery probabilities, supporting that MYC was NT-B2R’s main target (Figure 4G).
U87 cells were seeded in six 100x20 mm cell culture dishes at 1000 k/dish and incubated for 24h in full DMEM medium containing 10% FBS and 1% PS. […]
Total RNA of the harvested cells was extracted and purified using the RNeasy Micro Kit (QIAGEN). Following the extraction, RNA integrity and quantitation were assessed using the RNA Nano 6000 Assay Kit on the Bioanalyzer 2100 system (Agilent Technologies). […] The obtained six library samples were pooled together and sequenced on a NovaSeq 6000 (Illumina) to reach approximately 30M 150bp pair-end reads per sample.
The obtained sequencing data was preprocessed using TrimGalore, aligned using STAR, and counted using HTSeq. […]

[3] = system: MYC and phosphor-MYC (p-MYC, T58); assay: Western blot of MYC and phosphor-MYC levels in treated U87 cells; assay type: cell-based, human; details: liposome-delivered peptide
Excerpt: We then evaluated the biological effects of NT-B2R in cells.

T1 sequence (P01106 16-454): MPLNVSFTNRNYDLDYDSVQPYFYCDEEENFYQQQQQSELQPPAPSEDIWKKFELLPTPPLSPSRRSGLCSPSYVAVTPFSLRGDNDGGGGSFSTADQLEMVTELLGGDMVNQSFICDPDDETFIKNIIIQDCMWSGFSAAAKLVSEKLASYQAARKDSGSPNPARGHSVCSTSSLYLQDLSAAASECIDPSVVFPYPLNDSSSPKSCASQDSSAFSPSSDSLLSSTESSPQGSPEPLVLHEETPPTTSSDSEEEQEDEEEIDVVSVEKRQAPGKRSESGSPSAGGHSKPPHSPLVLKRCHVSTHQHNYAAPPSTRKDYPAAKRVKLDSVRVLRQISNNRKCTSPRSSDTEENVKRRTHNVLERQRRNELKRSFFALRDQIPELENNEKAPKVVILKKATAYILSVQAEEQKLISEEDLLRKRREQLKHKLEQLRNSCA

CC(C)C[C@@H]1NC(=O)[C@H](CCCNC(=N)N)NC(=O)[C@@H]2CCCCNC(=O)[C@@H]3C[C@H](C=CCOC(=O)CC[C@@H](C(N)=O)NC1=O)C[C@@H]3C=CCOC(=O)CC[C@H](N)C(=O)N[C@@H](Cc1c[nH]c3ccccc13)C(=O)N1CCC[C@H]1C(=O)N[C@@H](Cc1c[nH]cn1)C(=O)N[C@@H](CCCNC(=N)N)C(=O)N2 [NT-B2R] (H-EWPHRKRLE-NH2; linker 1-6-9 via X1; N-terminus and C-terminus assumed)
cell permeability (in words) [1]: not cell-permeable
metabolic activity and proliferation (viability), U87 (U87 cells): decreased metabolic activity and proliferation
increase of MYC melting temperature, CETSA (MYC): ~2 °
GSEA normalized enrichment score (NES), HALLAMRK MYC TARGETS V1 [2]: −5.955
expression and phosphorylation levels of MYC (Western blot) [3]: did not alter
